Reference: the kinase profiling compilation of Christmann-Franck et al. (2016)

Assays:
Experiment in all cases: KINOMEscan competition binding
Conditions in all cases: compound 1.0 µM
SBK1 (human) = SBK1 (human) (UniProt Q52WX2)
NUAK1 (human) = NUAK1 (human) (UniProt O60285)
STK11 (human) = STK11 (human) (UniProt Q15831)
EPHB1 (human) = EPHB1 (human) (UniProt P54762)
TYRO3 (human) = TYRO3 (human) (UniProt Q06418)
MAPK7 (human) = MAPK7 (human) (UniProt Q13164)
MAP4K4 (human) = MAP4K4 (human) (UniProt O95819)
[1] = tested on: EGFR (human), P00533 [L858R]
MAPK11 (human) = MAPK11 (human) (UniProt Q15759)
STK3 (human) = STK3 (human) (UniProt Q13188)
TNNI3K (human) = TNNI3K (human) (UniProt Q59H18)
MAP3K6 (human) = MAP3K6 (human) (UniProt O95382)
CAMK2G (human) = CAMK2G (human) (UniProt Q13555)
ACVR1B (human) = ACVR1B (human) (UniProt P36896)
PAK2 (human) = PAK2 (human) (UniProt Q13177)
ULK3 (human) = ULK3 (human) (UniProt Q6PHR2)
MAP2K2 (human) = MAP2K2 (human) (UniProt P36507)
PKMYT1 (human) = PKMYT1 (human) (UniProt Q99640)
CDK2 (human) = CDK2 (human) (UniProt P24941)
[2] = tested on: LRRK2 (human), Q5S007 [G2019S]
[3] = tested on: FLT3 (human), P36888 [K663Q]
BMPR1A (human) = BMPR1A (human) (UniProt P36894)
MKNK1 (human) = MKNK1 (human) (UniProt Q9BUB5)
IRAK3 (human) = IRAK3 (human) (UniProt Q9Y616)
PIP5K1C (human) = PIP5K1C (human) (UniProt O60331)
AKT1 (human) = AKT1 (human) (UniProt P31749)
HCK (human) = HCK (human) (UniProt P08631)
MARK1 (human) = MARK1 (human) (UniProt Q9P0L2)
NTRK1 (human) = NTRK1 (human) (UniProt P04629)
LIMK2 (human) = LIMK2 (human) (UniProt P53671)
CDKL5 (human) = CDKL5 (human) (UniProt O76039)
PIK3C2G (human) = PIK3C2G (human) (UniProt O75747)
CDK16 (human) = CDK16 (human) (UniProt Q00536)
SYK (human) = SYK (human) (UniProt P43405)
MAP4K3 (human) = MAP4K3 (human) (UniProt Q8IVH8)
LCK (human) = LCK (human) (UniProt P06239)
MAP3K15 (human) = MAP3K15 (human) (UniProt Q6ZN16)
MYLK (human) = MYLK (human) (UniProt Q15746)
PHKG1 (human) = PHKG1 (human) (UniProt Q16816)
MARK2 (human) = MARK2 (human) (UniProt Q7KZI7)
PIK3CD (human) = PIK3CD (human) (UniProt O00329)
PKN2 (human) = PKN2 (human) (UniProt Q16513)
LYN (human) = LYN (human) (UniProt P07948)

Sequence of LRRK2 (human), Q5S007 [G2019S] (Q5S007 whole entry G2019S, looked up): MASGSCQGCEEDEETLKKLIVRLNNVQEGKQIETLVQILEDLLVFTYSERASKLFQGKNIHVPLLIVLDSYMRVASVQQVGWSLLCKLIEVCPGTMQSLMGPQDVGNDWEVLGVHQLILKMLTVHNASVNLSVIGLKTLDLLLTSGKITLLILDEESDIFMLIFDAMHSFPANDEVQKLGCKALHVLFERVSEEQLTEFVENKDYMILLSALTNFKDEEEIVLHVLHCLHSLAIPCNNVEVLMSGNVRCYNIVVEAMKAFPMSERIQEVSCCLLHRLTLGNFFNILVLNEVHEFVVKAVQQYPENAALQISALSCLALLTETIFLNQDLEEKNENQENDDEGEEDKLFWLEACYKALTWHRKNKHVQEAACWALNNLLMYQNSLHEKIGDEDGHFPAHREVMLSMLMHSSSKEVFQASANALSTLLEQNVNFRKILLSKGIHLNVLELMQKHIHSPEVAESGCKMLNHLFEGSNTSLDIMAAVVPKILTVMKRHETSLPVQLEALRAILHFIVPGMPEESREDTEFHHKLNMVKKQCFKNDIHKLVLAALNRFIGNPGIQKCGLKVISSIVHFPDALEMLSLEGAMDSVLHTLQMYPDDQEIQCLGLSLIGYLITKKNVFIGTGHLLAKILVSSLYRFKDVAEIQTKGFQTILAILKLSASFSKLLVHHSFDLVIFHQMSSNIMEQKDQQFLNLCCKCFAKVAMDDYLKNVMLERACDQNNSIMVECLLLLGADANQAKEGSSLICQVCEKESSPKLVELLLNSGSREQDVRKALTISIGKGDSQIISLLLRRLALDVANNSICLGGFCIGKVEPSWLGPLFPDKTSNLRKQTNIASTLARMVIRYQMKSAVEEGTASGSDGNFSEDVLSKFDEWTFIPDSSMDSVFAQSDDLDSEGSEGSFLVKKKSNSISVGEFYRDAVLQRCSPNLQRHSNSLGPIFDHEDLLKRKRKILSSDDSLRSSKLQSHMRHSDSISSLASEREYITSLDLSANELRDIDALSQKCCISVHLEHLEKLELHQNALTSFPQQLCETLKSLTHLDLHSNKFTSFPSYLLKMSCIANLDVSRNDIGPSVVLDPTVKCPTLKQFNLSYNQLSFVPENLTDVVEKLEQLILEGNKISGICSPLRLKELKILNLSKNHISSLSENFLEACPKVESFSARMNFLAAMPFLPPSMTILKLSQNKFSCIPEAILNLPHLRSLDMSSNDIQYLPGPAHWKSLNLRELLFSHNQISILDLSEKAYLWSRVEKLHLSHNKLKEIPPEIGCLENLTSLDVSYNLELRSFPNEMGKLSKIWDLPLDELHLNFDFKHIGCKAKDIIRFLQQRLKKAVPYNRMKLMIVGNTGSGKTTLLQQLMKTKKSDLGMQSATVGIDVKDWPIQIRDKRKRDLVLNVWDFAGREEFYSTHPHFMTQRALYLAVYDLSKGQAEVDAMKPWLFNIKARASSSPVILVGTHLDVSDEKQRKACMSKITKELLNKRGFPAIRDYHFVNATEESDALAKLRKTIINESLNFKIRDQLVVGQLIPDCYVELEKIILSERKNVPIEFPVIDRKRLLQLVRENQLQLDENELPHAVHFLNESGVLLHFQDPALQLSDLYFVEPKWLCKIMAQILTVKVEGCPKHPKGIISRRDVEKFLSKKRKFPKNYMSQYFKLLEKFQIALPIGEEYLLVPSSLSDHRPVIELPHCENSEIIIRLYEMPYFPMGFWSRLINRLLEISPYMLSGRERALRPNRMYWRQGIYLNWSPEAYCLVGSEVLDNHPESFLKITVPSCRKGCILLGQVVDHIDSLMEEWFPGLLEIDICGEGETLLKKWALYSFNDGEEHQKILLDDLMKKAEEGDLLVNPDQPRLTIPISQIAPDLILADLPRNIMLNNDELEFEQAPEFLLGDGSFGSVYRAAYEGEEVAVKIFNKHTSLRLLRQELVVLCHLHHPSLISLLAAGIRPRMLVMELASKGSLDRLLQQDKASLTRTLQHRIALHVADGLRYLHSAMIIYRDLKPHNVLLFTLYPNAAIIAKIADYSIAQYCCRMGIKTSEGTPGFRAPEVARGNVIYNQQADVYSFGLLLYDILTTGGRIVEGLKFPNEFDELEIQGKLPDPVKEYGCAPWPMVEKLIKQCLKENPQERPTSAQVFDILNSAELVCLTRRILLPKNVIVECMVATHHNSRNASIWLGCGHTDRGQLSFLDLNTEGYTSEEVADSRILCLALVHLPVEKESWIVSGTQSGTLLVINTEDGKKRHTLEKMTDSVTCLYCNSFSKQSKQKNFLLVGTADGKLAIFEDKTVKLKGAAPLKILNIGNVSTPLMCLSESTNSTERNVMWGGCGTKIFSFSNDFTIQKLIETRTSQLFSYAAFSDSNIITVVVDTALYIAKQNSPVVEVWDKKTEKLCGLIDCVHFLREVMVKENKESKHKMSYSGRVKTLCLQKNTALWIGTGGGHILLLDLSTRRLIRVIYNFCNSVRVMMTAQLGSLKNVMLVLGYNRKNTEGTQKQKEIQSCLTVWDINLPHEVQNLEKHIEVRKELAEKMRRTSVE
Sequence of MAP4K4 (human) (O95819 whole entry, looked up): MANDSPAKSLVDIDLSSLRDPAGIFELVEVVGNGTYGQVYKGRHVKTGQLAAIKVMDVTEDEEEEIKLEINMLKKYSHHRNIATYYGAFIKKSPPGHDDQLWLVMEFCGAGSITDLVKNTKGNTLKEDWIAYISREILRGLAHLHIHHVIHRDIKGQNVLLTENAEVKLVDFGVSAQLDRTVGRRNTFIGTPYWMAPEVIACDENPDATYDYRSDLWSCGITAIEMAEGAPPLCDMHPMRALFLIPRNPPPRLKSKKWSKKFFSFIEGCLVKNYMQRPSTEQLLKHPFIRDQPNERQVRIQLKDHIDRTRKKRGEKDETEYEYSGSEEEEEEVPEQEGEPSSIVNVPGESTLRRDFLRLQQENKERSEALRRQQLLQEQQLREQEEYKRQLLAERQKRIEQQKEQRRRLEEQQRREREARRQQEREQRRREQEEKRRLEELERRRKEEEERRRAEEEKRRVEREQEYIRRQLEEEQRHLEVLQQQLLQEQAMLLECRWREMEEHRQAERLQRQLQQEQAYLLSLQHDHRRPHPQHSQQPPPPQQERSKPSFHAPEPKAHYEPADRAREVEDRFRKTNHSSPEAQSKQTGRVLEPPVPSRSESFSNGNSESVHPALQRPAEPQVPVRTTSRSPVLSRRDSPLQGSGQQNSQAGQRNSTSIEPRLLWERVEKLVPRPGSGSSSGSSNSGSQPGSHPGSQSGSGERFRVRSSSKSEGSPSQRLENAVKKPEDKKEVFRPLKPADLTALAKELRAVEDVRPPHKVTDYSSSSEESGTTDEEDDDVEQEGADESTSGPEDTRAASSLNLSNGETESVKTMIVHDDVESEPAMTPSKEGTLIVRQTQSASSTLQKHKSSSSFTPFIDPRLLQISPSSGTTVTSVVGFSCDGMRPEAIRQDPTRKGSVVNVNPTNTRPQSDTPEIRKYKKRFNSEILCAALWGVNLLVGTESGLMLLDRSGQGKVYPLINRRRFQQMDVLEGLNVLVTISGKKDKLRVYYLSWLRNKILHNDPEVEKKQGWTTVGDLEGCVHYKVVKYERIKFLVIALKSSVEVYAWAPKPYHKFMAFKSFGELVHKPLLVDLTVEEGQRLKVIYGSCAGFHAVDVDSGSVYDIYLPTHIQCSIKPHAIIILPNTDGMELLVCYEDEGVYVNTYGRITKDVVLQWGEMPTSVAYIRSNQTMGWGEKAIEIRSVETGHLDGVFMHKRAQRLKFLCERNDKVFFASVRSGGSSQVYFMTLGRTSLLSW
Sequence of LIMK2 (human) (P53671 whole entry, looked up): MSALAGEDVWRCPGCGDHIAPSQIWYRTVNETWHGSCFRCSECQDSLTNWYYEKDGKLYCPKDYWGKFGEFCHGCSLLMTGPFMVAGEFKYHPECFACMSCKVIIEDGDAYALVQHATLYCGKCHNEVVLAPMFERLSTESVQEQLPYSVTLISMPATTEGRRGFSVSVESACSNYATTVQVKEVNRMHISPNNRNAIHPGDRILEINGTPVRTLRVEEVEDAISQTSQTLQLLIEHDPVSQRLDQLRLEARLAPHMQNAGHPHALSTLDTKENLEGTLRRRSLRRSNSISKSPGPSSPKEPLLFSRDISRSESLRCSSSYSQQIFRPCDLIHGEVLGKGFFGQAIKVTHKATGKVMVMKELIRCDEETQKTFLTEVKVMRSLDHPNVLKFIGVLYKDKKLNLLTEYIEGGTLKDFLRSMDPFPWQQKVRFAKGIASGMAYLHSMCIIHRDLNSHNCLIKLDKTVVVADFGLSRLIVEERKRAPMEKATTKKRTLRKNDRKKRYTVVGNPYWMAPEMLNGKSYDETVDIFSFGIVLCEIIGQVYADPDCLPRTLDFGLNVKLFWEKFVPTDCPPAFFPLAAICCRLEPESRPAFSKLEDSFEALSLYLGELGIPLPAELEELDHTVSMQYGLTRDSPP
Sequence of STK11 (human) (Q15831 whole entry, looked up): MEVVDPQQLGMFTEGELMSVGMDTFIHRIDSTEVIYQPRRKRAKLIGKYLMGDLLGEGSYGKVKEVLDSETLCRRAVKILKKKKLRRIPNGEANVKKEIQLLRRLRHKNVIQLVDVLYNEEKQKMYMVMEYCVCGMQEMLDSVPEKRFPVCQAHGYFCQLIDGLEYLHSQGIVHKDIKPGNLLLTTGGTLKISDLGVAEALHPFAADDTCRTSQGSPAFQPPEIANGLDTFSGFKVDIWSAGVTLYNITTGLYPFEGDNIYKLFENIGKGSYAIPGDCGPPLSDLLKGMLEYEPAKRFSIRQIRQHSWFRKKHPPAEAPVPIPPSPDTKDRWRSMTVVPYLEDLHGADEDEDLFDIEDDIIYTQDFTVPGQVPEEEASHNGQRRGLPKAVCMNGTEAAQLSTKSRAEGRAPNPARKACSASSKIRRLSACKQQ

Structure (SMILES): COCCNCCCn1c(C(=O)CF)c(-c2ccc(C)cc2)c2c(N)ncnc21
- kinase still bound, per cent of control (SBK1 (human)): 98%
- kinase still bound, per cent of control (NUAK1 (human)): 98%
- kinase still bound, per cent of control (STK11 (human)): 98%
- kinase still bound, per cent of control (EPHB1 (human)): 94%
- kinase still bound, per cent of control (TYRO3 (human)): 100%
- kinase still bound, per cent of control (MAPK7 (human)): 100%
- kinase still bound, per cent of control (MAP4K4 (human)): 88%
- kinase still bound, per cent of control [1]: 62%
- kinase still bound, per cent of control (MAPK11 (human)): 90%
- kinase still bound, per cent of control (STK3 (human)): 95%
- kinase still bound, per cent of control (TNNI3K (human)): 89%
- kinase still bound, per cent of control (MAP3K6 (human)): 100%
- kinase still bound, per cent of control (CAMK2G (human)): 100%
- kinase still bound, per cent of control (ACVR1B (human)): 91%
- kinase still bound, per cent of control (PAK2 (human)): 85%
- kinase still bound, per cent of control (ULK3 (human)): 99%
- kinase still bound, per cent of control (MAP2K2 (human)): 100%
- kinase still bound, per cent of control (PKMYT1 (human)): 86%
- kinase still bound, per cent of control (CDK2 (human)): 83%
- kinase still bound, per cent of control [2]: 100%
- kinase still bound, per cent of control [3]: 100%
- kinase still bound, per cent of control (BMPR1A (human)): 100%
- kinase still bound, per cent of control (MKNK1 (human)): 100%
- kinase still bound, per cent of control (IRAK3 (human)): 86%
- kinase still bound, per cent of control (PIP5K1C (human)): 100%
- kinase still bound, per cent of control (AKT1 (human)): 100%
- kinase still bound, per cent of control (HCK (human)): 100%
- kinase still bound, per cent of control (MARK1 (human)): 90%
- kinase still bound, per cent of control (NTRK1 (human)): 82%
- kinase still bound, per cent of control (LIMK2 (human)): 100%
- kinase still bound, per cent of control (CDKL5 (human)): 100%
- kinase still bound, per cent of control (PIK3C2G (human)): 92%
- kinase still bound, per cent of control (CDK16 (human)): 100%
- kinase still bound, per cent of control (SYK (human)): 96%
- kinase still bound, per cent of control (MAP4K3 (human)): 100%
- kinase still bound, per cent of control (LCK (human)): 65%
- kinase still bound, per cent of control (MAP3K15 (human)): 100%
- kinase still bound, per cent of control (MYLK (human)): 100%
- kinase still bound, per cent of control (PHKG1 (human)): 100%
- kinase still bound, per cent of control (MARK2 (human)): 81%
- kinase still bound, per cent of control (PIK3CD (human)): 100%
- kinase still bound, per cent of control (PKN2 (human)): 94%
- kinase still bound, per cent of control (LYN (human)): 97%
